Experimental data taken from ChEMBL document CHEMBL4196035, “Discovery and optimization of ATX inhibitors via modeling, synthesis and biological evaluation” (Eur J Med Chem, 2018).
Each block holds one molecule with its values, some of them ahead of it.

How the values were obtained:
Autotaxin [1] = target: T1, Autotaxin (Homo sapiens, UniProt Q13822); assay: Inhibition of human ENPP2 using bis-pNPP as substrate measured every 10 secs for 10 mins by spectrophotometric assay
Autotaxin [2] = target: T1, Autotaxin; assay: Inhibition of human ENPP2 using FS3 as substrate measured every 5 mins for 30 mins by fluorescence assay
[3] = Cmax in Sprague-Dawley rat at 20 mg/kg, iv administered as single bolus dose by HPLC-MS/MS analysis; format: ADME, organism-based; set-up: dose 20 mg/kg, route intravenous; details: in vivo
[4] = Cmax in Sprague-Dawley rat at 2 mg/kg, iv administered as single bolus dose by HPLC-MS/MS analysis; format: ADME, organism-based; set-up: dose 2 mg/kg, route intravenous; details: in vivo
Rattus norvegicus [5] = assay: Dose normalized AUC in Sprague-Dawley rat at 10 mg/kg, iv administered as single bolus dose by HPLC-MS/MS analysis; format: ADME, organism-based; details: in vivo
[6] = AUC in Sprague-Dawley rat at 2 mg/kg, iv administered as single bolus dose by HPLC-MS/MS analysis; format: ADME, organism-based; details: in vivo
[7] = Metabolic stability in Sprague-Dawley rat liver microsomes assessed as parent compound remaining at 5 uM preincubated for 10 mins followed by NADPH addition measured after 60 mins by LC-MS/MS analysis; format: ADME, microsome; details: read-out: Stability
Autotaxin [8] = target: T1, Autotaxin; assay: Inhibition of ENPP2 in human A2058 cells using LPC as substrate preincubated for 15 mins followed by substrate addition measured after 3 hrs by LC-MS/MS analysis; format: cell-based
[9] = Clearance in Sprague-Dawley rat at 10 mg/kg, iv administered as single bolus dose by HPLC-MS/MS analysis; format: ADME, organism-based; details: in vivo
[10] = Metabolic stability in human liver microsomes assessed as parent compound remaining at 5 uM preincubated for 10 mins followed by NADPH addition measured after 60 mins by LC-MS/MS analysis; format: ADME, microsome; details: read-out: Stability
[11] = Terminal half life in Sprague-Dawley rat at 2 mg/kg, iv administered as single bolus dose by HPLC-MS/MS analysis; format: ADME, organism-based; details: in vivo, read-out: beta t1/2 (converted)
[12] = Tmax in Sprague-Dawley rat at 20 mg/kg, iv administered as single bolus dose by HPLC-MS/MS analysis; format: ADME, organism-based; details: in vivo
[13] = Tmax in Sprague-Dawley rat at 2 mg/kg, iv administered as single bolus dose by HPLC-MS/MS analysis; format: ADME, organism-based; details: in vivo
[14] = Volume of distribution at steady state in Sprague-Dawley rat at 10 mg/kg, iv administered as single bolus dose by HPLC-MS/MS analysis; format: ADME, organism-based; details: in vivo, read-out: Vdss
[15] = Cmax in Sprague-Dawley rat at 10 mg/kg, iv administered as single bolus dose by HPLC-MS/MS analysis; format: ADME, organism-based; set-up: dose 10 mg/kg, route intravenous; details: in vivo
[16] = Half life in human liver microsomes at 5 uM preincubated for 10 mins followed by NADPH addition measured up to 60 mins by LC-MS/MS analysis; format: ADME, microsome
[17] = AUC in Sprague-Dawley rat at 10 mg/kg, iv administered as single bolus dose by HPLC-MS/MS analysis; format: ADME, organism-based; details: in vivo
[18] = AUC in Sprague-Dawley rat at 20 mg/kg, iv administered as single bolus dose by HPLC-MS/MS analysis; format: ADME, organism-based; details: in vivo
[19] = Volume of distribution at steady state in Sprague-Dawley rat at 20 mg/kg, iv administered as single bolus dose by HPLC-MS/MS analysis; format: ADME, organism-based; details: in vivo, read-out: Vdss
[20] = Half life in Sprague-Dawley rat liver microsomes at 5 uM preincubated for 10 mins followed by NADPH addition measured up to 60 mins by LC-MS/MS analysis; format: ADME, microsome
Rattus norvegicus [21] = assay: Dose normalized AUC in Sprague-Dawley rat at 2 mg/kg, iv administered as single bolus dose by HPLC-MS/MS analysis; format: ADME, organism-based; details: in vivo
Rattus norvegicus [22] = assay: Dose normalized Cmax in Sprague-Dawley rat at 2 mg/kg, iv administered as single bolus dose by HPLC-MS/MS analysis; format: ADME, organism-based; details: in vivo
[23] = Tmax in Sprague-Dawley rat at 10 mg/kg, iv administered as single bolus dose by HPLC-MS/MS analysis; format: ADME, organism-based; details: in vivo
[24] = Clearance in Sprague-Dawley rat at 20 mg/kg, iv administered as single bolus dose by HPLC-MS/MS analysis; format: ADME, organism-based; details: in vivo
Rattus norvegicus [25] = assay: Dose normalized Cmax in Sprague-Dawley rat at 10 mg/kg, iv administered as single bolus dose by HPLC-MS/MS analysis; format: ADME, organism-based; details: in vivo
Rattus norvegicus [26] = assay: Dose normalized AUC in Sprague-Dawley rat at 20 mg/kg, iv administered as single bolus dose by HPLC-MS/MS analysis; format: ADME, organism-based; details: in vivo
[27] = Terminal half life in Sprague-Dawley rat at 20 mg/kg, iv administered as single bolus dose by HPLC-MS/MS analysis; format: ADME, organism-based; details: in vivo, read-out: beta t1/2 (converted)
[28] = Volume of distribution at steady state in Sprague-Dawley rat at 2 mg/kg, iv administered as single bolus dose by HPLC-MS/MS analysis; format: ADME, organism-based; details: in vivo, read-out: Vdss
Rattus norvegicus [29] = assay: Dose normalized Cmax in Sprague-Dawley rat at 20 mg/kg, iv administered as single bolus dose by HPLC-MS/MS analysis; format: ADME, organism-based; details: in vivo
Autotaxin [30] = target: T1, Autotaxin; assay: Inhibition of ENPP2 in human plasma using LPC as substrate preincubated for 15 mins followed by substrate addition measured after 3 hrs by LC-MS/MS analysis
[31] = Terminal half life in Sprague-Dawley rat at 10 mg/kg, iv administered as single bolus dose by HPLC-MS/MS analysis; format: ADME, organism-based; details: in vivo, read-out: beta t1/2 (converted)
[32] = Clearance in Sprague-Dawley rat at 2 mg/kg, iv administered as single bolus dose by HPLC-MS/MS analysis; format: ADME, organism-based; details: in vivo
Autotaxin [33] = target: T1, Autotaxin; assay: Inhibition of ENPP2 in human SKHEP1 cells using LPC as substrate preincubated for 15 mins followed by substrate addition measured after 3 hrs by LC-MS/MS analysis; format: cell-based

SMILES: O=C(NO)c1ccc(NC(=O)C2CCN(C(=O)OCc3cc(Cl)cc(Cl)c3)CC2)cc1
IC50 (Autotaxin [1]): 496 nM
IC50 (Autotaxin [2]): 18.7 nM

SMILES: O=C(Nc1ccc(CP(=O)(O)O)cc1)C1CCN(C(=O)OCc2ccccc2F)CC1
IC50 (Autotaxin [1]): 453 nM
IC50 (Autotaxin [2]): 7.13 nM

SMILES: O=C(NC1CCN(C(=O)OCc2cc(Cl)cc(Cl)c2)C1)c1nc(CP(=O)(O)O)cs1 (centres undefined)
IC50 (Autotaxin [1]): 54.7 nM
IC50 (Autotaxin [2]): 3.71 nM

SMILES: O=C(Nc1ccc(CP(=O)(O)O)cc1)C1CCN(C(=O)OCc2ccc(OC(F)(F)F)cc2F)CC1
IC50 (Autotaxin [1]): 2.78 nM
IC50 (Autotaxin [2]): 1.67 nM

SMILES: O=C(Nc1ccc(CP(=O)(O)O)cc1)C1CCN(C(=O)OCc2cc(Cl)cc(Cl)c2)CC1
Cmax [3]: 200 µg/mL
Cmax [4]: 33.1 µg/mL
AUC/dose (Rattus norvegicus [5]): 1.27 kg·h/L
AUC [6]: 3050 ng·h/mL
remaining at 1 h, 5 µM [7]: > 99.9%
IC50 (Autotaxin [8]): 1.3 nM
clearance [9]: 13.3 mL/min/kg
remaining at 1 h, 5 µM [10]: > 99.9%
half-life [11]: 17.4 min
Tmax [12]: 1.2 min
Tmax [13]: 1.2 min
Vd [14]: 0.33 L/kg
Cmax [15]: 117 µg/mL
IC50 (Autotaxin [1]): 2.18 nM
half-life at 5 µM [16]: > 60 min
AUC [17]: 12700 ng·h/mL
AUC [18]: 27000 ng·h/mL
Vd [19]: 2.24 L/kg
half-life at 5 µM [20]: > 60 min
AUC/dose (Rattus norvegicus [21]): 1.53 kg·h/L
Cmax/dose (Rattus norvegicus [22]): 16.6 kg/L
Tmax [23]: 1.2 min
clearance [24]: 12.2 mL/min/kg
Cmax/dose (Rattus norvegicus [25]): 11.7 kg/L
AUC/dose (Rattus norvegicus [26]): 1.35 kg·h/L
half-life [27]: 245 min
Vd [28]: 0.15 L/kg
Cmax/dose (Rattus norvegicus [29]): 9.98 kg/L
IC50 (Autotaxin [30]): 136 nM
half-life [31]: 42.6 min
clearance [32]: 11.3 mL/min/kg
IC50 (Autotaxin [2]): 1.23 nM
IC50 (Autotaxin [33]): 7.9 nM

SMILES: O=C(Nc1ccc(CP(=O)(O)O)cc1)C1CCN(C(=O)OCc2ccccc2)CC1
IC50 (Autotaxin [1]): 255 nM
IC50 (Autotaxin [2]): 7.17 nM

SMILES: O=C(Nc1ccc(CP(=O)(O)O)cc1)C1CCN(C(=O)OCc2ccc(OC(F)(F)F)cc2)CC1
IC50 (Autotaxin [1]): 3.12 nM
IC50 (Autotaxin [2]): 1.97 nM

SMILES: O=C(Nc1ccc(CP(=O)(O)O)cc1)C1CCN(C(=O)OCc2cccc(Cl)c2)CC1
IC50 (Autotaxin [1]): 39.6 nM
IC50 (Autotaxin [2]): 1.79 nM

SMILES: O=C(O)Cc1ccc(NC(=O)C2CCN(C(=O)OCc3cc(Cl)cc(Cl)c3)CC2)cc1
IC50 (Autotaxin [1]): 439 nM
IC50 (Autotaxin [2]): 8.44 nM

Continued by falling IC50 (Autotaxin [1]), values first:

IC50 (Autotaxin [1]): 250 nM
IC50 (Autotaxin [2]): 8.9 nM
SMILES: NS(=O)(=O)Nc1ccc(NC(=O)C2CCN(C(=O)OCc3cc(Cl)cc(Cl)c3)CC2)cc1

IC50 (Autotaxin [1]): 213 nM
IC50 (Autotaxin [2]): 3.29 nM
SMILES: O=C(Nc1ccc(CP(=O)(O)O)cc1)C1CCN(C(=O)OCc2ccccc2Cl)CC1

IC50 (Autotaxin [1]): 73.5 nM
IC50 (Autotaxin [2]): 4.62 nM
SMILES: NS(=O)(=O)Cc1ccc(NC(=O)C2CCN(C(=O)OCc3cc(Cl)cc(Cl)c3)CC2)cc1

IC50 (Autotaxin [1]): 26.5 nM
IC50 (Autotaxin [2]): 1.75 nM
SMILES: O=C(Nc1nc(CP(=O)(O)O)cs1)C1CCN(C(=O)OCc2cc(Cl)cc(Cl)c2)CC1

IC50 (Autotaxin [1]): 5.22 nM
IC50 (Autotaxin [2]): 1.36 nM
SMILES: O=C(NC1CCN(C(=O)OCc2cc(Cl)cc(Cl)c2)CC1)c1ccc(CP(=O)(O)O)cc1
